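Results reflect a 48-hour exposure of cells in 96-well plates to compound at five concentrations. GI50 is the concentration that inhibits growth by half. Definition used: TGI = concentration required for complete inhibition of growth.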
Experiments:
Assay in all cases: DTP human tumour cell line panel, 48 h
CAKI-1 renal = test system: CAKI-1 renal
EKVX NSCLC = test system: EKVX NSCLC
MALME-3M melanoma = test system: MALME-3M melanoma
MOLT-4 leukemia = test system: MOLT-4 leukemia
NCI-H460 lung = test system: NCI-H460 lung
SNB-19 CNS = test system: SNB-19 CNS
MDA-MB-231 breast = test system: MDA-MB-231 breast
PC-3 prostate = test system: PC-3 prostate
SR leukemia = test system: SR leukemia

SMILES	TGI (CAKI-1 renal) [µM]	TGI (EKVX NSCLC) [µM]	TGI (MALME-3M melanoma) [µM]	TGI (MOLT-4 leukemia) [µM]	TGI (NCI-H460 lung) [µM]	TGI (SNB-19 CNS) [µM]	GI50 (CAKI-1 renal) [µM]	GI50 (EKVX NSCLC) [µM]	GI50 (MALME-3M melanoma) [µM]	GI50 (MDA-MB-231 breast) [µM]	TGI (MDA-MB-231 breast) [µM]	GI50 (MOLT-4 leukemia) [µM]	GI50 (NCI-H460 lung) [µM]	GI50 (PC-3 prostate) [µM]	TGI (PC-3 prostate) [µM]	GI50 (SNB-19 CNS) [µM]	TGI (SR leukemia) [µM]	GI50 (SR leukemia) [µM]
O=C(CC1(O)C(=O)Nc2c(Cl)ccc(Cl)c21)c1ccc(F)cc1 (stereo unspecified)	> 100	> 100	> 100	95.6	> 100	> 100												
Cc1ccc(C(=O)NC(C)C)cc1-c1ccc(C(=O)NCC2CC2)cc1	> 25	> 25	> 25	> 25	> 25	> 25	> 25	> 25	> 25	> 25	> 25	> 25	> 25	> 25	> 25	> 25		
CCOC(=O)/C(=C\c1ccccc1)C(=O)O	> 100	> 100	> 100	> 100	> 100	> 100											> 100	
CC(C)(CO)N1CCN(C(=S)Nc2ccccc2)CC1	> 100	> 100	> 100		> 100	> 100					> 100				> 100			
Cc1cc(-c2cnn3c(NCC4CC(C)(O)C4)cc(Oc4cccnc4)nc23)ccc1C(=O)NC1CC1 (stereo unspecified)	> 100	> 100			> 100	> 100	1.38	3.76		3.39	> 100		0.585			> 60.7	> 100	0.525
Cc1c(C(=O)C/C(=N/NC(=O)C[N+](C)(C)C)C(=O)Nc2ccc(Cl)cc2)[n+](=O)c2ccccc2n1O	> 100	> 100	> 100	> 100	> 100	> 100											> 100	
CC(SC(=S)N1CCOCC1)c1cc2oc(=O)n(C)c2cc1Cl (stereo unspecified)	> 100	> 100	> 100	> 100	> 100	> 100											> 100	
Cc1cc(N(CCC#N)CCC#N)ccc1/C=C1\N=C(c2cc([N+](=O)[O-])ccc2Cl)N(c2cccc(Cl)c2)C1=O	> 100	> 100	> 100	> 100	> 100	> 100											> 100	
O=[N+]([O-])c1ccc(C=NC2CCCCC2)cc1	> 100	> 100	> 100	> 100	> 100	> 100											> 100	
O=C(CCN(C(=O)O)S(=O)(=O)c1ccc(NC(=O)c2ccccc2)cc1)NC1CCCCC1	> 100	> 100	> 100	45.9	> 100	> 100											> 100	
O/N=C/c1ncccc1C1OCCO1	> 100	> 100	> 100	> 100	> 100	> 100											> 100	
CC1OC(OC2C(OC(=O)[C@]34CCC(C)(C)CC3C3=CCC5[C@@]6(C)C[C@H](O)[C@H](OC7OC(CO)C(O)C(O)C7N)[C@@](C)(C(=O)O)C6CC[C@@]5(C)C3(C)CC4)OCC(O)C2O)C(O)C(O)C1OC1OCC(O)C(O)C1O (stereo partly specified)	> 100	> 100	> 100	> 100	> 100	> 100												
O=C1c2ccccc2C(=O)N1CCc1ncc[nH]1	> 100	> 100		> 100	> 100	> 100									> 100		> 100	
O=C(O)CCSC(=O)Nc1ccc([N+](=O)[O-])cc1	> 100	> 100		> 100	> 100	> 100											> 100	
COc1ccc2c(c1)[n+](=O)c(C(=O)C/C(=N/OCCCc1ccccc1)C(=O)NC13CC4CC(CC(C4)C1)C3)c(C)n2[O-]	> 100	> 100	> 100	> 100	> 100	> 100											> 100	
Nc1cccc(S(=O)(=O)NCC(=O)O)c1	> 100	> 100	> 100	> 100	> 100	> 100												
COC1(OC)CC2OC1C1N=NN(C(=O)OC(C)(C)C)C21 (stereo unspecified)	> 100		> 100	> 100	> 100													
CC(=O)OCC1OC(NC(=S)N/N=C2\CC(c3ccccc3)Oc3ccccc32)C(OC(C)=O)C(OC(C)=O)C1OC(C)=O (stereo unspecified)	> 100	> 100	> 100	> 100	> 100	> 100											> 100	
O=C1NC(=O)C(CCC(=O)c2ccc3ccccc3c2)C(=O)N1	> 100	> 100	> 100	> 100	> 100	> 100											> 100	

SMILES	TGI (CAKI-1 renal) [µM]	TGI (EKVX NSCLC) [µM]	TGI (MALME-3M melanoma) [µM]	TGI (MOLT-4 leukemia) [µM]	TGI (NCI-H460 lung) [µM]	TGI (SNB-19 CNS) [µM]	GI50 (CAKI-1 renal) [µM]	GI50 (EKVX NSCLC) [µM]	GI50 (MALME-3M melanoma) [µM]	GI50 (MDA-MB-231 breast) [µM]	TGI (MDA-MB-231 breast) [µM]	GI50 (MOLT-4 leukemia) [µM]	GI50 (NCI-H460 lung) [µM]	GI50 (PC-3 prostate) [µM]	TGI (PC-3 prostate) [µM]	GI50 (SNB-19 CNS) [µM]	TGI (SR leukemia) [µM]	GI50 (SR leukemia) [µM]
CCCC1N2CCCCC2[C@@H]2c3[nH]c4ccccc4c3CCN12 (stereo partly specified)	> 100	> 100	> 100	> 100	> 100	> 100												
O=C(CC1(O)C(=O)Nc2ccccc21)c1ccncc1 (stereo unspecified)	> 100	> 100		> 100	> 100	> 100											> 100	
CCc1ccccc1NC(=O)C1=C(C)NC(C)=C(C(=O)Nc2ccccc2CC)C1c1ccc2c(c1)OCO2	88.5	> 100	99	> 100	> 100	> 100												
O=C1CCC(N2C(=O)c3ccccc3C2=O)C(=O)N1CO (stereo unspecified)	> 100	> 100	> 100	> 100	> 100	> 100	94.7	> 100	> 100	> 100	> 100	36.2	> 100	47.2	> 100	> 100		
COc1ccc(NC(=O)CC(=O)N/N=C/c2ccc(N(CCC#N)S(C)(=O)=O)cc2)cc1	> 100	> 100	> 100	> 100	> 100												> 100	
CCN(CC)C(c1ccc(N(C)C)cc1)C(c1ccc(N(C)C)cc1)N(CC)CC (stereo unspecified)	> 73	> 73	50.3	> 73	> 73	> 73												
CCOC(=O)/C(C#N)=C/c1[nH]c(C(=O)OCc2ccccc2)c(C)c1C	> 100	> 100	> 100	> 100	> 100	> 100												
Cc1ccc(NC(=O)CC(=O)n2nc(C)c(N=Nc3ccccc3C(=O)O)c2C)cc1	> 100	> 100	> 100	> 100	> 100	> 100												
COCCCNC(=O)C1C(=O)C(=O)N(CCCOC)C1=O (stereo unspecified)	> 100	> 100	> 100	> 100		> 100											> 100	
C/C(O)=C(\N=O)C(=O)Nc1ccc(Cl)cc1Cl	> 100	> 100	> 100	> 100	> 100	> 100												
C/C(CC(=O)Nc1cc(C)ccc1C)=N\NC(=O)c1ccncc1		> 100	> 100	> 100	> 100													
NC1=NC(c2ccccc2)CC(c2cc(Cl)ccc2O)=N1 (stereo unspecified)	30.1	29.5	38	33.9	29.3	30.7											36.6	
O=C(Nc1ccc(-c2nc(N3CCOCC3)c3cccn3n2)cc1)Nc1cccnc1	3.85	0.975	0.471	6.8	> 100		0.185	0.216	0.082			0.23	0.142	0.0512	2.27		15	0.245
COc1ccc2nc3c(C(=O)NCCN(C)C)cccc3nc2c1	> 100	15.7		> 100	> 1	37.9												
NC(=O)COC(=O)c1c(Cl)nc2sccn12	> 100	> 100	> 100	> 100	> 100	> 100											85.4	
CCC[CH2][Sn]1([CH2]CCC)[O]C(=O)CN=Cc2c(ccc3ccccc23)[O]1	0.593	1.86	0.464	1.14	2.75	0.526	0.0629	0.552	0.134			0.319	1.36			0.229		
NC(=S)N1N=C2c3ccccc3CC[C@@H]2[C@@H]1c1ccccc1	42.2	> 81.8	66.7	48	> 42.2	> 100											12.6	
CCOC1Oc2ccc(C)cc2C(=O)/C1=C\Nc1ccc(C(N)=O)cc1 (stereo unspecified)	44.8	69		> 100	> 100	> 100	20.6	25.8		16.7	36	46.2	33.3	32.9	> 100	18.4		
Nc1c(-c2ccc(Cl)cc2)[n+]([O-])c2ccccc2[n+]1[O-]	> 100	> 100	> 100	> 100	> 100	> 100												

— PubChem BioAssay (NCI)
